According to patent US20070259861A1, “Combination therapy with non-selective COX inhibitors to prevent COX-related gastric injuries” (Pharmena North America Inc., priority 2006, published 2007):

Columns and labels:
[1] = system: prostacyclin (PGI2) release; details: cited from earlier work; for release of prostacyclin: animal models
gastric mucosa = assay: ASA- and WRS-induced gastric lesions in non-diabetic and streptozocin-diabetic rats; format: in vivo; details: for rise of gastric blood flow (GBF): H2-gas clearance
Experimental: In this study, streptozocin (70 mg/kg injected intraperitoneally) was used to induce diabetes mellitus and non-diabetic and diabetic rats were pretreated 30 min prior to exposure to aspirin (ASA; 150 mg/kg in 0.1 N HCl i.g.) or 3.5 h of water immersion and restraint stress (WRS) with 1) vehicle (saline) or 2) MNA (2.5-50 mg/kg i.g.). The area and number of gastric lesions was determined by planimetry, gastric blood flow (GBF) was examined by H2-gas clearance technique, and mieloperoxidase (MPO) activity, activity of superoxide dismutase (SOD) and the malonyldialdehyde (MDA) concentration as an index of lipid peroxidation were determined in gastric mucosa using ELISA. The gene expression IL-1β and TNF-α in the gastric mucosa and their plasma levels were evaluated by RT-PCR and ELISA, respectively. […] This experiment is also described in an abstract published for Digestive Disease Week 2006 (May 20-25, 2006, Los Angeles, Calif.; http://www.medscape.com/viewprogram/5452).

[2] = ASA 150 mg/kg in 0.1 N HCl i.g.

1-methyl-3-acetylpyridinium salt
release of prostacyclin [1]: ability to induce the release of prostacyclin

C[n+]1cccc(C(=O)NCO)c1 [1-methyl-N′-(hydroxymethyl)nicotinamide]
release of prostacyclin [1]: ability to induce the release of prostacyclin

C[n+]1cccc(C(N)=O)c1 [1-methylnicotinamide chloride]
release of prostacyclin [1]: ability to induce the release of prostacyclin

CC(=O)Oc1ccccc1C(=O)O [ASA, aspirin]
gastric lesions (gastric mucosa; [2]): typical gastric lesions | reduction of GBF from basal (gastric mucosa; [2]): 35% | increase of MPO activity (gastric mucosa; ASA 150 mg/kg in 0.1 N HCl i.g., gastric mucosa): 2-3 fold | mucosal SOD activity (gastric mucosa; ASA-exposed animals without or with diabetes): significantly decreased | MDA activity (lipid peroxidation) (gastric mucosa; ASA-exposed animals without or with diabetes, gastric mucosa): significantly increased | plasma levels of TNF-α and IL-1 (gastric mucosa; ASA-exposed, ELISA): marked increase | mRNAs for TNF-α and IL-1 (gastric mucosa; ASA-exposed, gastric mucosa, RT-PCR): overexpression

CNC(=O)c1cccnc1 [MNA, N-methylnicotinamide]
secretion of PGI2 ([1]; thrombolytic assay): stimulate the secretion of PGI2 | decrease of mucosal SOD activity and increase of MDA (gastric mucosa; ASA- and WRS-exposed animals without or with diabetes): markedly attenuated | WRS-induced gastric erosions (gastric mucosa; MNA 2.5-50 mg/kg i.g. 30 min before 3.5 h WRS, diabetic and non-diabetic rats): dose-dependently attenuated | ASA-induced gastric erosions (gastric mucosa; MNA 2.5-50 mg/kg i.g. 30 min before ASA 150 mg/kg i.g., diabetic and non-diabetic rats): dose-dependently attenuated | IL-1β and TNF-α (gastric mucosa; gastric mucosa expression (RT-PCR) and plasma levels (ELISA)): downregulation | rise of gastric blood flow (GBF) (gastric mucosa; injured gastric mucosa): ~33% | rise of gastric blood flow (GBF) (gastric mucosa; intact gastric mucosa): about 22%
